# Test results: paper PMC10618743 (Cancer Discovery, 2023)
# Tests used:
# [1] = cited from earlier work
# [2] = Tolerability measures in CDX studies: body weight and insulin 1 hour after dose; details: for Δ Insulin: Alpelisib 50 mg/kg QD, one-hour post dose
# [3] = tested on: pAKT (S473) in CAL-33 tumors; test: CAL-33 tumor PK/PD, pAKT/AKT Western blot; type: in vivo, mouse; details: 50 mg/kg q.d.
# [4] = tested on: T47D ER+HER2- breast cancer xenograft; test: T47D xenograft efficacy study; type: in vivo, mouse; details: Alpelisib 50 mg/kg QD, Day 20
# [5] = tested on: insulin-mediated glucose uptake in primary human subcutaneous adipocytes; test: Human adipocyte 3H-2-deoxyglucose uptake; type: cell-based
# Experimental: Primary human subcutaneous adipocytes were treated with a test compound or vehicle for 1 hour followed by the addition of 10 nmol/L insulin and ^3H-2-deoxyglucose (Zen Bio Durham, assay #CA-25, Lot #SL0071). Cytochalasin B treatment controlled for nonspecific glucose uptake. Corrected counts per minute were determined using a scintillation counter.
# [6] = tested on: pAKT (S473) in OAW42 cells; test: pAKT (S473) HTRF; type: cell-based; details: Homo sapiens, OAW-42; OAW42, H1047L; 1 hour; read-out: pAKT HTRF GMean IC50 (95% CI)
# Experimental: (§1) A 384-well phospho-AKT (S473) HTRF (Homogenous Time-Resolve Fluorescence; PerkinElmer, #64AKSPEH) assay was used for target engagement. Each well was seeded with cell numbers indicated in Supplementary Table S3 in a volume of 12.5 μL in complete, phenol red-free media and then treated for 1 hour at 37°C with 5% CO2 before reading on a PHERAstar plate reader.
# [7] = tested on: pAKT (S473) in CAL33 cells; test: pAKT (S473) HTRF; type: cell-based; details: Homo sapiens, CAL-33; CAL33, H1047R; 1 hour; read-out: pAKT HTRF GMean IC50 (95% CI)
# Experimental: as §1
# [8] = tested on: pAKT (S473) in GP2D cells; test: pAKT (S473) HTRF; type: cell-based; details: Homo sapiens, H1047L, 1 hour, read-out: pAKT HTRF GMean IC50 (95% CI)
# Experimental: as §1
# [9] = tested on: glucose oxidation in tumor and skeletal muscle; test: [U-13C]-glucose metabolic profiling in CAL-33 tumor-bearing mice; type: in vivo, mouse; details: alpelisib 50 mg/kg; 30 minutes after [U-13C]-glucose
# [10] = patients; cited from earlier work
# [11] = tested on: PI3Kα-mutant, ER+HER2- metastatic breast cancer; details: alpelisib in combination with fulvestrant, median follow-up 20 months; cited from earlier work
# [12] = tested on: GP2d colon cancer xenograft; test: GP2d xenograft efficacy study; type: in vivo, mouse
# SKBR3 cells = test: Cell viability CellTiter-Glo; type: cell-based; details: Homo sapiens, SK-BR-3; SKBR3, WT PI3Kα; 72 hours; read-out: CTGlo GMean GI50 (95% CI)
# Experimental: (§2) Cell viability was measured using CellTiter-Glo (Promega, #G9243). Indicated cell lines were seeded according to Supplementary Table S3 in 50 μL of media in 384-well plates, with 72 hours of treatment at 37°C with 5% CO2.
# T47D cells = test: Cell viability CellTiter-Glo; type: cell-based; details: Homo sapiens, H1047R, 72 hours, read-out: CTGlo GMean GI50 (95% CI)
# Experimental: as §2
# EFM19 cells = test: Cell viability CellTiter-Glo; type: cell-based; details: Homo sapiens, EFM-19; EFM19, H1047L; 72 hours; read-out: CTGlo GMean GI50 (95% CI)
# Experimental: as §2
# OAW42 cells = test: Cell viability CellTiter-Glo; type: cell-based; details: Homo sapiens, OAW-42; OAW42, H1047L; 72 hours; read-out: CTGlo GMean GI50 (95% CI)
# Experimental: as §2
# HCC1954 cells = test: Cell viability CellTiter-Glo; type: cell-based; details: Homo sapiens; HCC1954, H1047R; 72 hours; read-out: CTGlo GMean GI50 (95% CI)
# Experimental: as §2
# DETROIT562 cells = test: Cell viability CellTiter-Glo; type: cell-based; details: Homo sapiens, Detroit 562; DETROIT562, H1047R; 72 hours; read-out: CTGlo GMean GI50 (95% CI)
# Experimental: as §2
# CAL148 cells = test: Cell viability CellTiter-Glo; type: cell-based; details: Homo sapiens, CAL-148; CAL148, H1047R + D350N; 72 hours; read-out: CTGlo GMean GI50 (95% CI)
# Experimental: as §2
# CAL33 cells = test: Cell viability CellTiter-Glo; type: cell-based; details: Homo sapiens, CAL-33; CAL33, H1047R; 72 hours; read-out: CTGlo GMean GI50 (95% CI)
# Experimental: as §2
# GP2D cells = test: Cell viability CellTiter-Glo; type: cell-based; details: Homo sapiens, H1047L, 72 hours, read-out: CTGlo GMean GI50 (95% CI)
# Experimental: as §2
# BT20 cells = test: Cell viability CellTiter-Glo; type: cell-based; details: Homo sapiens, BT-20; BT20, H1047R + P539R; 72 hours; read-out: CTGlo GMean GI50 (95% CI)
# Experimental: as §2
# NCIH1048 cells = test: Cell viability CellTiter-Glo; type: cell-based; details: Homo sapiens, NCI-H1048; NCIH1048, H1047R + K111R; 72 hours; read-out: CTGlo GMean GI50 (95% CI)
# Experimental: as §2
# [13] = tested on: Detroit 562 HNSCC xenograft; test: Detroit 562 xenograft efficacy study; type: in vivo, mouse
# [14] = alpelisib with ribociclib and fulvestrant, in the clinic; cited from earlier work
# [15] = Insulin tolerance test (ITT) and oral glucose tolerance test (OGTT); type: in vivo, mouse; details: 50 mg/kg dose levels
# [16] = STX-478 100 mg/kg q.d., alpelisib 50 mg/kg q.d.
smiles,measurement,setting,value
Cc1nc(NC(=O)N2CCC[C@H]2C(N)=O)sc1-c1ccnc(C(C)(C)C(F)(F)F)c1 [alpelisib],exposure of the maximum approved human dose (AUC),[1],"~33,000 ng*h/mL"
same,Δ Insulin,[2]; Cal33 model,+1.07 ng/mL
same,Δ Insulin,[2]; Detroit 562 model,+2.33 ng/mL
same,Δ Insulin,[2]; GP2D model,+1.59 ng/mL
same,Δ Insulin,[2]; HCC1954 model,+2.38 ng/mL
same,Δ Insulin,[2]; NCI-H1048 model,+1.21 ng/mL
same,effects on body weight across studies,[2]; [16],No treatment-specific effects on body weight
same,Δ Insulin,[2]; T-47D model,+0.79 ng/mL
same,average pAKT suppression (treated/vehicle AUC1–12h),[3],66%
same,TGI (%),[4],100%
same,glucose uptake inhibition,[5]; 10 μmol/L,nearly complete inhibition
same,Emax,"[5]; Homo sapiens, Adipocyte, 10 nmol/L insulin, read-out: maximum effect (Emax) for glucose uptake inhibition",88%
same,IC50,[6],82 nM
same,IC50,[7],71 nM
same,IC50,[8],66 nM
same,glucose oxidation in skeletal muscle,[9],reductions in glucose oxidation in the skeletal muscle
same,rate of permanent discontinuations,[10],≤ 46%
same,rate of safety-related dose reduction,[10],up to 42%
same,progression-free survival time,[11],11.0 months
same,TGI (%),"[12]; Alpelisib 50 mg/kg QD, Day 28",79%
same,tumor regressions (waterfall plot),[12]; [16],no regression
same,GI50,SKBR3 cells,335 nM
same,GI50,T47D cells,334 nM
same,GI50,EFM19 cells,127 nM
same,GI50,OAW42 cells,601 nM
same,GI50,HCC1954 cells,384 nM
same,GI50,DETROIT562 cells,436 nM
same,GI50,CAL148 cells,962 nM
same,GI50,CAL33 cells,340 nM
same,GI50,GP2D cells,298 nM
same,GI50,BT20 cells,516 nM
same,GI50,NCIH1048 cells,67 nM
same,TGI (%),"[13]; Alpelisib 50 mg/kg QD, Day 22",96%
same,tumor regressions,[13]; [16],tumor regressions in five of the nine study animals
same,tolerability of triple combination,[14],not tolerated in the clinic
same,insulin resistance,[15],overt insulin resistance
